The assay deals with T1, VEGFR-2 (Homo sapiens, UniProt P35968).
T1 construct: gene KDR
Put plainly: in vitro VEGFR-2 inhibition, Human VEGFR-2 ELISA kit. It is filed as biochemical.

The structures appear in SMILES notation.

What is called IC50 is the midpoint of a concentration-inhibition curve. Read a high IC50 as weaker potency in that assay.

T1 sequence (P35968 20-1356): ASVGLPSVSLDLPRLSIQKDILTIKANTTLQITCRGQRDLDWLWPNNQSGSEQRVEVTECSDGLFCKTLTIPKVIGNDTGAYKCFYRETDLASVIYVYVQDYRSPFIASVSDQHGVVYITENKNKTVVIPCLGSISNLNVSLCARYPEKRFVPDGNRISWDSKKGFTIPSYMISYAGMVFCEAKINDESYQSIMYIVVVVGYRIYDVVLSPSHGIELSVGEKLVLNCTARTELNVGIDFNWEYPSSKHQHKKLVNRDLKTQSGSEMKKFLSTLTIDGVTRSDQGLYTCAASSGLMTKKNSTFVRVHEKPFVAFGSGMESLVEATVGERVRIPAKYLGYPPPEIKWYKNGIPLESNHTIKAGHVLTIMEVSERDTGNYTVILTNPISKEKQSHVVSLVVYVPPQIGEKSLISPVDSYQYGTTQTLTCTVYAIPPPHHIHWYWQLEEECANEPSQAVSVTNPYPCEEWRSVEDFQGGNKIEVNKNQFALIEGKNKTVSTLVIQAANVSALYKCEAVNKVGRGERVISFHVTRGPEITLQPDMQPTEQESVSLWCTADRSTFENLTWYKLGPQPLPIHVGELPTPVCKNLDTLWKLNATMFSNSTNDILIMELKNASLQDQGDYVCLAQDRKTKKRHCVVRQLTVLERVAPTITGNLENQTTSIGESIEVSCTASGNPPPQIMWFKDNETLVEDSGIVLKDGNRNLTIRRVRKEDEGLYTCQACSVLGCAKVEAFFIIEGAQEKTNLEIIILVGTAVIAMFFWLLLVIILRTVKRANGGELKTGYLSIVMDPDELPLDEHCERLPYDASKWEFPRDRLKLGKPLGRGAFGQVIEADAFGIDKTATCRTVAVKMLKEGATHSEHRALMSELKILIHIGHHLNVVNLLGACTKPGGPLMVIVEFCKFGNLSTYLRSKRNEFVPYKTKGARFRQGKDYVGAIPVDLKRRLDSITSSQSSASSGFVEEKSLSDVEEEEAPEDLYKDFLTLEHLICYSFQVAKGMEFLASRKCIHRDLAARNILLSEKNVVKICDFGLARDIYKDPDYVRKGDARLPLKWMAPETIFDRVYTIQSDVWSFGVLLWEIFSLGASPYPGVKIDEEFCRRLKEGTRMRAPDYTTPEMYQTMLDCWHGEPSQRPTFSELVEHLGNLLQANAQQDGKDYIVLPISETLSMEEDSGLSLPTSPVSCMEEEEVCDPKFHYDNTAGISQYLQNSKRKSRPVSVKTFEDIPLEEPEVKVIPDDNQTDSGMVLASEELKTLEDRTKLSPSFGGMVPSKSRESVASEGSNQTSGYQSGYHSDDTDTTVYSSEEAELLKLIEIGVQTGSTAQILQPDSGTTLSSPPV

In turn, `C/C(=N\NC(=O)c1ccc(NC(=O)C(F)(F)F)cc1)c1cccc(NC(=O)c2cccnc2)c1` [compound 10, (E)-N-(3-(1-(2-(4-(2,2,2-Trifluoroacetamido)benzoyl)hydrazono)ethyl)phenyl)nicotinamide] yielded an IC50 of 65.8 nM.

Source of the values: paper PMC9697799, “(E)-N-(3-(1-(2-(4-(2,2,2-Trifluoroacetamido)benzoyl)hydrazono)ethyl)phenyl)nicotinamide: A Novel Pyridine Derivative for Inhibiting Vascular Endothelial Growth Factor Receptor-2: Synthesis, Computational, and Anticancer Studies” (Molecules, 2022).
